Tested on: NAFLD and IR genes
Experiment: Effects on NAFLD and IR gene expression in the liver
Source text: Abbreviations in Table 4-1 and Table 4-2: NAFLD: non-alcoholic fatty liver disease; IR: insulin resistance; DNL: de novo lipogenesis; FA: fatty acid; TG: triglycerides; LPL: lipoprotein lipase; HP: hepatic lipase; CHOL: cholesterol.

With `O=C1[C@H](CC[C@H](O)c2ccc(F)cc2)[C@@H](c2ccc(O)cc2)N1c1ccc(F)cc1` [Ezetimibe] the “Effect on ACACA (ACC1)” value was “minor up”, the “Effect on ACACB (ACC2)” value was “up” and the “Effect on APOC3” value was “down”. The “Effect on CD36” value was “minor down”, the “Effect on ChREBP (MLX1PL)” value was “up” and the “Effect on DGAT2” value was “minor down”. For the same compound, the “Effect on FAS” value was “down”, the “Effect on LDLR” value was “minor down” and the “Effect on MTP (MTTP1)” value was “up”. The “Effect on PPARα” value was “up”, the “Effect on PPARγ” value was “up” and the “Effect on PPARγ-CoA 1α” value was “up”. For the same compound, the “Effect on PPARγ-CoA 1β (PERC)” value was “up”, the “Effect on SREBP-1c” value was “up” and the “Effect on mTOR” value was “no change”.

— US20240207304A1, “Combination Therapies Comprising C/EBP Alpha saRNA” (MiNA Therapeutics Limited, priority 2021, published 2024)
